Reference: patent US6331555A, “Treatment of platelet derived growth factor related disorders such as cancers” (priority 1999, dated 2001)
Where two headings read alike, the source gives them in different places.

Tests used:
PDGFR = PDGFR (Homo sapiens, UniProt P09619); assay: PDGF-stimulated receptor phosphorylation in U1242 cells, ELISA; format: cell-based; design: U1242 (PDGF-β receptor); host or cells: U1242 MG glioma cells
Protocol: For ELISA assays, cells were grown to 80-90% confluency in growth medium and seeded in 96-well tissue culture plates in 0.5% serum at 25,000 to 30,000 cells per well. After overnight incubation in 0.5% serum-containingmedium, cells were changed to serum-free medium and treated with test compound for 2 hr in a 5% CO2, 37° C. incubator. Cells were then stimulated with ligand for 5-10 min followed by lysis with HNTG (20 mM Hepes, 150 mM NaCl, 10% glycerol, 5 mM EDTA, 5 mM Na3 VO4 0.2% Triton X-100, and 2 mM NaPyr). […] Lysates were incubated with shaking for 1 hr at room temperature. The plates were washed with TBST four times and then incubated with polyclonol anti-phosphotyrosine antibody at room temperature for 30 min. Excess anti-phosphotyrosine antibody was removed by rinsing the plate with TBST four times. Goat anti-rabbit IgG antibody was added to the ELISA plate for 30 min at room temperature followed by rinsing with TBST four more times.
U1242 MG cells were plated in 96-well plates at a concentration of 5×10^4 cells/well in cultured media containing 0.5% FBS. The cells were incubated for 24 hours. The cells were then treated with a particular compound for 2 hours followed by the addition of 100 ng/ml PDGF-BB and incubation for 10 minutes.
Cells were lysed in 0.2 M Hepes, 0.15 M NaCl, 10% V/V glycerol, 0.04% Triton X-100, 5 mM EDTA, 5 MM Na^+ vanadate and […] Na^+ pyrophosphate. Cell lysates were then added to an ELISA plate coated with an anti-PDGF receptor antibody (Genzyme). ELISA plates were coated at […] of antibody/well in […] of PBS for 18 hours at 4° C. prior to the addition of the lysate.
The lysate was incubated in the coated plates for 1 hour and then washed four times in TBST (35 mM Tris-HCl pH 7.0, 0.15 M NaCl, 0.1% Triton X-100). Anti-phosphotyrosine antibody ([…] in PBS) was added and the mixture was incubated for 30 minutes at room temperature. The wells were then washed four times in TBST, a secondary antibody conjugated to POD (TAGO) was added to each well, and the treated wells were incubated for 30 minutes at room temperature. The wells were then washed four times in TBST, ABTS/H2 O2 solution was added to each well and the wells were incubated for two minutes. Absorbance was then measured at 410 nm.

C6 cells = assay: C6 SRB growth assay; format: cell-based, rat; conditions: Rattus norvegicus, C6; for IC50: read-out: C6 SRB IC50
[1] = 100 ng/ml PDGF-BB, read-out: ELISA P-TYR U1242 IC50

Sequence of PDGFR (P09619 33-1106): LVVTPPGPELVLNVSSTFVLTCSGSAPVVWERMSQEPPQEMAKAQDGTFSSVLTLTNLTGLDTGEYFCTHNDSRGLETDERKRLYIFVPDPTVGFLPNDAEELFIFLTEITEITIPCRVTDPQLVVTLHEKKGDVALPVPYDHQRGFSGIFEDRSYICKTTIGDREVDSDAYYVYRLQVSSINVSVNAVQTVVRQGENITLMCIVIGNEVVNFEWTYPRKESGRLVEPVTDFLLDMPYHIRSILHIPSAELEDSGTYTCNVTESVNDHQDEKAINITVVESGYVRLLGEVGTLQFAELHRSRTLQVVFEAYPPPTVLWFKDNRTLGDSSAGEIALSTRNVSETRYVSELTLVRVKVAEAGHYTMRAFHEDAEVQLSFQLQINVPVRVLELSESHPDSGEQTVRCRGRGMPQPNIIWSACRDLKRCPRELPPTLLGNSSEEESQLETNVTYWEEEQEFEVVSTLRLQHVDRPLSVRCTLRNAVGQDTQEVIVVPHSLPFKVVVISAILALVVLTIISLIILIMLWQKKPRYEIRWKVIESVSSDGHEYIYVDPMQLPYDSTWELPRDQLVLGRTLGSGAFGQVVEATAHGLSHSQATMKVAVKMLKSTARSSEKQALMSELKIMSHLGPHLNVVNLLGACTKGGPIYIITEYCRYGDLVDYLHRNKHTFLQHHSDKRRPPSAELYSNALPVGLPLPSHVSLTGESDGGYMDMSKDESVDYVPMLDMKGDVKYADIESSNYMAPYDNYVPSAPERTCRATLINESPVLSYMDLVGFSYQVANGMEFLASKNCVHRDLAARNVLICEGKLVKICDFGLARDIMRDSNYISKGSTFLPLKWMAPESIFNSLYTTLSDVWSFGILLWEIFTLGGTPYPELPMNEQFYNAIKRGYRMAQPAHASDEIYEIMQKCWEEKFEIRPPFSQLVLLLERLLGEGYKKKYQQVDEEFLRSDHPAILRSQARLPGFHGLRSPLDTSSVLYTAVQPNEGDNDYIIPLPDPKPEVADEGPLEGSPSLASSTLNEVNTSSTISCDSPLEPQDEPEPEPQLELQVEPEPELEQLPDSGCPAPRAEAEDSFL

With `CC(NC(=O)C(C#N)=Cc1ccc2[nH]ccc2c1)c1ccccc1` (single isomer, unassigned) [Compound I10] the IC50 (PDGFR; [1]) was 90 µM.
`CC(O)=C(C#N)C(=O)Nc1ccc([N+](=O)[O-])cc1` [Compound B10] was tested, and the IC50 (PDGFR; [1]) was 180 µM.
Compound `N#CC(C(=O)Nc1ccc(C(F)(F)F)cc1)=C(O)c1ccc(F)cc1` [Compound B12, 2-Propenamide, 2-cyano-3-hydroxy-3-(4-fluorophenyl)-N-[(4-trifluoromethyl)phenyl]] has an IC50 (PDGFR; [1]) of 100 µM.
In the case of `N#CC(C(=O)Nc1ccc(C(F)(F)F)cc1)=C(O)C1CCCCC1` [Compound B13, 2-Propenamide, 2-cyano-3-hydroxy-3-cyclohexyl-N-[(4-trifluoromethyl)phenyl]], the IC50 (PDGFR; [1]) is reported as 180 µM.
With `CC1(C)C(C(O)=C(C#N)C(=O)Nc2ccc(C(F)(F)F)cc2)C1(C)C` [Compound B14, 2-cyano-3-hydroxy-3-(2,2,3,3-tetramethylcyclopropyl)-propanol-4-(trifluoromethyl)anilide] the IC50 (PDGFR; [1]) was 180 µM.
`N#CC(C(=O)Nc1ccc(C(F)(F)F)cc1)=C(O)c1c(F)c(F)c(F)c(F)c1F` [Compound B15, 2-Propenamide, 2-cyano-3-hydroxy-3-(pentafluorophenyl)-N-[(4-trifluoromethyl)phenyl]] gave an IC50 (PDGFR; [1]) of 120 µM.
Compound `N#CC(C(=O)Nc1ccc(C(F)(F)F)cc1)=C(O)Cc1ccccc1` [Compound B17, 2-Butenamide, 2-cyano-3-hydroxy-4-phenyl-N-[(4-trifluoromethyl)phenyl]] has an IC50 (PDGFR; [1]) of 125 µM.
For `CC(C)CC(O)=C(C#N)C(=O)Nc1ccc(C(F)(F)F)cc1` [Compound B18, 2-Hexeneamide, 2-cyano-3-hydroxy-5-methyl-N-[(4-trifluoromethyl)phenyl]], the IC50 (PDGFR; [1]) was 160 µM.
`N#CC(C(=O)Nc1ccc(C(F)(F)F)cc1)=C(O)C(c1ccccc1)c1ccccc1` [Compound B19, 2-Butenamide, 2-cyano-3-hydroxy-4,4-diphenyl-N-[(4-trifluoromethyl)phenyl]] showed an IC50 (PDGFR; [1]) of 100 µM.
With `N#CC(=Cc1ccc(O)c(O)c1)c1[nH]nc(N)c1C#N` [Compound C11] the IC50 (PDGFR; [1]) was 70 µM.
For `N#CC(=Cc1c[nH]c2ccccc12)C(N)=C(C#N)C#N` [Compound D12], the IC50 (PDGFR) was 60 µM.
`CN(C)CCCn1cc(C=C(C#N)C(=O)c2ccc(O)c(O)c2)c2ccccc21` [Compound D16] gave an IC50 (PDGFR; [1]) of 50 µM.
In the case of `N#CCCn1cc(C=C(C#N)C(=O)c2ccc(O)c(O)c2)c2ccccc21` [Compound D17], the IC50 (PDGFR; [1]) is reported as > 100 µM.
`CN(C)c1ccc(NC(=O)C(=O)NN=Cc2ccc(O)c(O)c2)cc1` [Compound E10] showed an IC50 (PDGFR; [1]) of 45 µM.
With `O=C(NN=Cc1ccc(O)c(O)c1)C(=O)Nc1cccc(O)c1` [Compound E11] the IC50 (PDGFR; [1]) was 90 µM.
With `O=C(NN=Cc1ccccc1O)C(=O)Nc1cccc(O)c1` [Compound E12] the IC50 (PDGFR; [1]) was 180 µM.
In the case of `COc1ccccc1NC(=O)C(=O)NN=Cc1ccc(O)c(O)c1` [Compound E13], the IC50 (PDGFR; [1]) is reported as > 100 µM.
`O=C(NN=Cc1ccc(O)cc1)C(=O)Nc1cccc([N+](=O)[O-])c1` [Compound E16] showed an IC50 (PDGFR; [1]) of 125 µM.
For `O=c1c2ccccc2nc2n1CCOC2=Cc1ccc(O)c(O)c1` [Compound F11], the IC50 (PDGFR; [1]) was 100 µM.
In the case of `O=c1c2ccccc2nc2n1CCOC2=Cc1cccc(O)c1` [Compound F12], the IC50 (PDGFR; [1]) is reported as 70 µM.
Compound `c1csc(-c2cnc3ccccc3n2)c1` [Compound G15] has an IC50 (PDGFR; [1]) of 100 µM.
`COc1cc2nc(-c3ccccc3)cnc2cc1O` [Compound G17] showed an IC50 (PDGFR; [1]) of 100 µM.
Compound `Cc1ccc2ncc(-c3ccccc3)nc2c1` [Compound G19] has an IC50 (PDGFR; [1]) of 90 µM.
In the case of `Oc1cc2ncc(-c3ccccc3)nc2cc1O` [Compound G20], the IC50 (PDGFR; [1]) is reported as > 100 µM.
For `N#CC(C(=O)N1CCOCC1)C(=S)Nc1ccccc1Cl` (centres unmarked) [Compound P19, N-2-chlorophenyl (2-cyano-2-N-morpholinocarbonyl) thioacetamide], the IC50 (C6 cells) was > 50 µM.
`Cc1noc(C)c1C(=O)NCc1ccc(C(F)(F)F)cc1` [Compound P22, N-4-trifluoromethlybenzy 3,5-dimethylisoxazole-4-carboxamide] was tested, and the inhibition at 25 µM (C6 cells; at 25 μM) was ~10% and the IC50 (C6 cells) was > 25 µM.
`Cc1oncc1C(=O)NCc1ccc(C(F)(F)F)cc1` [Compound P23] showed an IC50 (C6 cells) of 18 µM.
For `CC(O)=C(C#N)C(=O)NCc1ccc(C(F)(F)F)cc1` [Compound P24, 1-trifluorometnlybenzylaminocarbonly-1-cyano-2-hydroxy propene], the IC50 (C6 cells) was 14 µM.
